Assay results taken from US9011853B2, “B7-H4 fusion proteins and methods of use thereof” (Amplimmune, Inc., priority 2009, dated 2015).

How the values were obtained:
CTLA4 KD/NOD mice = test: Autoimmune diabetes in CTLA4 KD/NOD mice; assay type: in vivo, mouse; settings: 15 mg/kg i.p. 3 times per week for 4 weeks from age 2 weeks; mice 24 weeks old (22 weeks post treatment) (FIG. 49)
Procedure: Both female and male CTLA4 KD/NOD mice (Chen et al., PNAS, 103(44):16400-16405 (2006)) at age of 2 weeks were randomly assigned into experimental groups: vehicle (11 mice), and B7-H4-Ig (12 mice). Mice were treated with B7-H4-Ig 3 times per week for 4 weeks (15 mg/kg, per i.p. injection), and monitored 3 times per week for glucose content in the urine first with Diastix. […] Diabetes was determined when blood glucose reached ≧600 mg/dL.

[1] = test system: CD4^+ T cells, Treg cells, effector/memory CD4^+ T cells; test: T cell subsets in spleen, draining lymph nodes and CNS of R-EAE mice (FACS, immunochemical staining); assay type: in vivo, mouse
Text: Mice were anesthetized with nembutal and perfused with phosphate-buffered saline (PBS). Brains and spinal cords from each mouse were frozen in OCT (Miles Laboratories; Elkhart, Ind.) in liquid nitrogen. Tissue from the lower lumbar region of the spinal cord was sectioned at 6 μm on a Reichert-Jung 1800 cryotome and mounted on Superfrost Plus electrostatically charged slides. Cross-sections (10 μm thick for brains and 6 μm for spinal cords) from longitudinal sections of brain and spinal cord were performed. Tissues were stained with biotin-conjugated antibody to mouse CD4, PLP and FoxP3. Positive staining of biotinylated antibodies was visualized by a Tyramide Signal Amplification (TSA) Direct kit (NEN, Boston, Mass.) according to manufacturer's instructions and fluorescein anti-mouse IgG (Vector Laboratories). Sections were counterstained with 4,6-diamidino-2-phenylindole (DAPI; Sigma-Aldrich) and then coverslipped with Vectashieldmounting medium (Vector Laboratories). Slides were examined and images were acquired via epifluorescence using the SPOT RT camera (Diagnostic Instruments, Sterling Heights, Mich.). Sections from each group were analyzed at 40 or 100× magnification.
The effect of B7-H4-Ig treatment on the number of Treg cells in vivo was analyzed in this study. The effect of B7-H4-Ig on the number and phenotype of CD4^+ T cells infiltrating into the CNS following B7-H4-Ig treatment, the relevant site for activity in vivo, was determined. […] SJL mice were first immunized with PLP139-151 peptide. B7-H4-Ig treatment started during remission (Day 23). Mice received mouse Control IgG, 100 μg, or B7-H4-Ig at either 60 or 300 μg, 3 times per week for 2 weeks or 4 weeks. Half of the animals (5 mice from each group) were euthanized on Day 35, after 6 doses of B7-H4-Ig. The rest of the animals (5 mice from each group) were euthanized on Day 50, after 12 doses of B7-H4-Ig. Mouse spleens, draining lymph nodes, spinal cords and brains were collected, tissues were made into a single cell suspension and counted via the use of a hemocytometer, and analyzed for the presence of effector/memory CD4^+ T cells (CD4^+CD44^+) and Treg cells (CD4^+CD25^+FoxP3^+). Whole cerebellar and lumbar spinal cord tissue samples were snap frozen and processed as described above to analyze the number of CD4^+ and FoxP3^+ cells present within the CNS by histology.
Cells isolated from spleen, draining lymph node and also lumbar spinal cord were stained for CD4, CD44 and FoxP3 followed by FACS analysis to obtain the number of total CD4^+ T cells, Treg (CD4^+/Foxp3^+) and effector/memory CD4^+ T cells (CD4^+/CD44^+). The data is presented in FIGS. 43A, 43B, and 43C as the mean number of cells for each phenotype from individual mouse. […] Similar data was obtained after the full course of 12 treatments.

Human T cells = test: Quantitative RT-PCR of human T cells under Th17 differentiation cocktail; assay type: cell-based; settings: 1 μg/mL, vs Synagis (FIG. 55)
Procedure: Human T cells were activated by anti-CD3 and anti-CD28 bound beads in the presence of Th17 differntiation cocktail (TGF-β1 (10 ng/mL), IL-6 (50 ng/mL), IL-23 (4 ng/mL), anti-IL-4 (10 μg/mL), anti-IFN-γ (5 μg/mL) and anti-IL-2 (5 μg/mL)). Cells were incubated with two different variants of B7-H4-Ig (1 μg/mL) identified as Q or L, or a humanized monoclonal IgG antibody directed against an epitope in the A antigenic site of the F protein of the Respiratory Syncytial Virus (Synagis), as an isotype control.

CTLA4KD/BDC2.5/NOD mice = test: Autoimmune diabetes in CTLA4KD/BDC2.5/NOD mice; assay type: in vivo, mouse
Procedure: CTLA4 KD/NOD mice (Chen, et al., PNAS (2006)) were bred with BDC2.5 TCR transgenic mice (Katz, et al., Cell, 74(6):1089-100 (1993)). Both female and male mice at age of 11 weeks were randomly assigned into experimental groups: vehicle (3 mice), and B7-H4-Ig (5 mice). Mice were treated with B7-H4-Ig 3 times per week for 4 weeks (15 mg/kg, per i.p. injection), and monitored 3 times per week for glucose content in the urine first with Diastix. […] Diabetes was determined when blood glucose reached ≧600 mg/dL.

## B7-H4-Ig: B7-H4 extracellular domain fused to Ig Fc; bare label is the human protein in Example 3, murine protein in Examples 1, 2, 5, 7-11
CTLA4 KD/NOD mice
  diabetes development (blood glucose ≧600 mg/dL): did not develop diabetes
[1]; FIG. 43C
  amount of Treg cells in the CNS: appeared constant
[1]; R-EAE mice treated during remission (FIGS. 43A, 43B)
  number of Treg (CD4+/FoxP3+) cells within the spleen and lymph node: remarkably increased
[1]; control IgG vs B7-H4-Ig treated mice
  level of demyelination via anti-PLP staining: no significant difference in the level of demyelination
[1]; lumbar spinal cord cross sections
  number of FoxP3+ cells within the CNS (histology): increases the number of FoxP3^+ cells within the CNS
[1]; vs Control IgG injected mice (FIG. 44)
  percentage of Treg cells among CD4+ T cells in the CNS: significantly higher
[1]; vs Control IgG treated mice (FIG. 43C)
  effector/memory T cells (CD4+/CD44+) within the CNS: decreased
Human T cells
  expression of mRNA involved in Th17 cell differentiation (RORc, IL-17A, IL-17F, IL-21, IL-22): downregulates the expression of mRNA involved in Th17 cell differentiation
CTLA4KD/BDC2.5/NOD mice; 15 mg/kg i.p. 3 times per week for 4 weeks from age 11 weeks (FIG. 50)
  autoimmune diabetes (blood glucose ≧600 mg/dL): delayed autoimmune diabetes
CTLA4KD/BDC2.5/NOD mice; 15 mg/kg i.p. 3 times per week for 4 weeks from age 11 weeks, 10 weeks post treatment
  age until which treated mice did not develop diabetes: 21 weeks old
